According to patent publication US20230148600A1, “PESTICIDALLY ACTIVE THIOPHENE DERIVATIVES” (SYNGENTA PARTICIPATIONS AG, priority 2017, published 2023):

How the values were obtained:
Assay type in all cases: in vivo
[1] = system: Plutella Xylostella (Diamond Back Moth); assay: Plutella xylostella (diamond back moth) feeding/contact activity; settings: 120 h, application rate 200 ppm, artificial diet treated by pipetting, L2 larvae, assessed 5 days after infestation
Description: Plutella Xylostella (Diamond Back Moth) Feeding/Contact Activity
24-well microtiter plates with artificial diet were treated with aqueous test solutions prepared from 10 ′000 ppm DMSO stock solutions by pipetting. After drying, the plates were infested with L2 larvae (10 to 15 per well). The samples were assessed for mortality 5 days after infestation.

[2] = system: Thrips Tabaci (Onion Thrips); assay: Thrips tabaci (onion thrips) feeding/contact activity; settings: foliar, 144 h, application rate 200 ppm, sunflower leaf discs sprayed, thrips population of mixed ages, assessed 6 days after infestation
Description: Thrips Tabaci (Onion Thrips) Feeding/Contact Activity
Sunflower leaf discs were placed on agar in 24-well microtiter plates and sprayed with aqueous test solutions prepared from 10 ′000 ppm DMSO stock solutions. After drying the leaf discs were infested with a thrips population of mixed ages. The samples were assessed for mortality 6 days after infestation.

[3] = system: Euschistus Heros (Neotropical BROWN Stink Bug); assay: Euschistus heros (neotropical brown stink bug) feeding/contact activity; settings: 120 h, application rate 200 ppm, soybean leaves sprayed, N2 nymphs, assessed 5 days after infestation
Description: Euschistus Heros (Neotropical BROWN Stink Bug) Feeding/Contact Activity
Soybean leaves on agar in 24-well microtiter plates were sprayed with aqueous test solutions prepared from 10 ′000 ppm DMSO stock solutions. After drying the leaves were infested with N2 nymphs. The samples were assessed for mortality 5 days after infestation.

[4] = system: Tetranychus Urticae (Two-Spotted Spider Mite); assay: Tetranychus urticae (two-spotted spider mite) feeding/contact activity; settings: foliar, 192 h, application rate 200 ppm, bean leaf discs sprayed, mite population of mixed ages, assessed 8 days after infestation, read-out: mortality on mixed population (mobile stages)
Description: Tetranychus Urticae (Two-Spotted Spider Mite) Feeding/Contact Activity
Bean leaf discs on agar in 24-well microtiter plates were sprayed with aqueous test solutions prepared from 10 ′000 ppm DMSO stock solutions. After drying the leaf discs were infested with a mite population of mixed ages. The samples were assessed for mortality on mixed population (mobile stages) 8 days after infestation.

[5] = system: Myzus Persicae (Green Peach Aphid); assay: Myzus persicae (green peach aphid) feeding/contact activity; settings: foliar, 144 h, application rate 200 ppm, sunflower leaf discs sprayed, aphid population of mixed ages, assessed 6 days after infestation
Description: Myzus Persicae (Green Peach Aphid) Feeding/Contact Activity
Sunflower leaf discs were placed onto agar in a 24-well microtiter plate and sprayed with aqueous test solutions prepared from 10 ′000 ppm DMSO stock solutions. After drying, the leaf discs were infested with an aphid population of mixed ages. The samples were assessed for mortality 6 days after infestation.

[6] = system: Diabrotica Balteata (Corn Root Worm); assay: Diabrotica balteata (corn root worm) mortality on sprayed maize sprouts; settings: 96 h, application rate 200 ppm, L2 larvae, assessed 4 days after infestation
Description: Diabrotica Balteata (Corn Root Worm)
Maize sprouts placed onto an agar layer in 24-well microtiter plates were treated with aqueous test solutions prepared from 10 ′000 ppm DMSO stock solutions by spraying. After drying, the plates were infested with L2 larvae (6 to 10 per well). The samples were assessed for mortality 4 days after infestation.

[7] = system: Spodoptera Littoralis (Egyptian Cotton Leaf Worm); assay: Spodoptera littoralis (Egyptian cotton leaf worm) feeding/contact activity; settings: foliar, 72 h, application rate 200 ppm, cotton leaf discs sprayed, L1 larvae, assessed 3 days after infestation
Description: Spodoptera Littoralis (Egyptian Cotton Leaf Worm) Feeding/Contact Activity
Cotton leaf discs were placed onto agar in 24-well microtiter plates and sprayed with aqueous test solutions prepared from 10 ′000 ppm DMSO stock solutions. After drying the leaf discs were infested with five L1 larvae. The samples were assessed for mortality 3 days after infestation.

Measured: mortality at 200 ppm

O=C(NC1CC1)c1cc(-c2cnn(-c3c(Cl)cc(C(F)(C(F)(F)F)C(F)(F)F)cc3Cl)c2)sc1Cl [Example 2, 2-chloro-N-cyclopropyl-5-[1-[2,6-dichloro-4-[1,2,2,2-tetrafluoro-1-(trifluoromethyl)ethyl]phenyl]pyrazol-4-yl]thiophene-3-carboxamide]
≥ 80%: all assays above

N#CC1(NC(=O)c2cc(-c3cnn(-c4c(Cl)cc(C(F)(C(F)(F)F)C(F)(F)F)cc4Cl)c3)sc2Cl)CC1 [Example 4, 2-chloro-N-(1-cyanocyclopropyl)-5-[1-[2,6-dichloro-4-[1,2,2,2-tetrafluoro-1-(trifluoromethyl)ethyl]phenyl]pyrazol-4-yl]thiophene-3-carboxamide]
≥ 80%: all assays above
